Test results as given in ChEMBL document CHEMBL4007412, “Design, Synthesis, and Biological Evaluation of Mitochondria-Targeted Flavone-Naphthalimide-Polyamine Conjugates with Antimetastatic Activity” (J Med Chem, 2017).
Active and inactive are the calls of the source. The rule behind the calls is not given here.

Key:
[1] = Cytotoxicity against human QSG7701 cells assessed as reduction in cell viability up to 20 uM after 24 to 72 hrs by MTT assay; assay type: cell-based
[2] = tested on: HepG2; experiment: Induction of intracellular ROS generation in human HepG2 cells at 20 uM after 8 hrs by DCFH-DA staining based HCS analysis relative to control; assay type: functional
[3] = tested on: SMMC-7721; experiment: Effect on ODC expression in human SMMC7721 cells at 5 to 20 uM after 24 hrs by Western blot analysis; assay type: functional, cell-based
[4] = tested on: HepG2; experiment: Disruption of mitochondrial membrane potential in human HepG2 cells at 20 uM after 24 hrs by JC-1 staining based flow cytometry; assay type: functional, cell-based
[5] = Drug localization in mitochondria of human HepG2 cells at 10 uM after 8 hrs by UV-bright field microscopic analysis; assay type: ADME
[6] = tested on: HepG2; experiment: Cytotoxicity against human HepG2 cells assessed as effect on cell viability at 5 to 10 uM after 24 hrs in presence of spermidine by MTT assay; assay type: functional, cell-based
[7] = tested on: SMMC-7721; experiment: Induction of intracellular ROS generation in human SMMC7721 cells at 20 uM after 8 hrs by DCFH-DA staining based HCS analysis relative to control; assay type: functional
[8] = tested on: HepG2; experiment: Induction of ROS generation in human HepG2 cells at 20 uM after 24 hrs in presence of CAT by DCFH-DA-staining based HCS analysis; assay type: functional, cell-based
[9] = tested on: HepG2; experiment: Inhibition of colony formation of human HepG2 cells up to 20 uM […] by crystal violet staining based colony formation assay; assay type: functional, cell-based
[10] = Drug localization in human HepG2 cell golgi apparatus at 10 uM after 8 hrs by Golgi tracker-staining based confocal microscopic analysis; assay type: ADME
[11] = tested on: HepG2; experiment: Induction of p53 expression in human HepG2 cells up to 20 uM after 24 hrs by Western blot analysis relative to control; assay type: functional, cell-based
[12] = Drug uptake in human HepG2 cells assessed as PAT-mediated cellular uptake after 8 hrs by HCS analysis; assay type: ADME, cell-based
[13] = tested on: HepG2; experiment: Effect on ODC expression in human HepG2 cells at 5 to 20 uM after 24 hrs by Western blot analysis; assay type: functional, cell-based
[14] = tested on: HepG2; experiment: Cytotoxicity against human HepG2 cells assessed as effect on cell viability at 5 to 20 uM after 24 hrs in absence of spermidine by MTT assay; assay type: functional, cell-based
[15] = tested on: SMMC-7721; experiment: Inhibition of colony formation of human SMMC7721 cells up to 20 uM […] by crystal violet staining based colony formation assay; assay type: functional, cell-based
[16] = tested on: SMMC-7721; experiment: Effect on putrescine levels in human SMMC7721 cells at 20 uM after 24 hrs by HPLC analysis; assay type: functional, cell-based
[17] = tested on: HepG2; experiment: Effect on spermine levels in human HepG2 cells at 20 uM after 24 hrs by HPLC analysis; assay type: functional, cell-based
[18] = tested on: SMMC-7721; experiment: Antiproliferative activity against human SMMC7721 cells assessed as reduction in cell viability at 20 uM pre-treated with TOC after 48 hrs by MTT assay; assay type: functional, cell-based
[19] = Induction of intracellular ROS generation in human QSG7701 cells at 20 uM after 8 hrs by DCFH-DA staining based HCS analysis relative to control; assay type: cell-based; details: qsg7701, 8 h
[20] = tested on: HepG2; experiment: Induction of apoptosis in human HepG2 cells assessed as early apoptotic cells at 20 uM after 24 hrs by Annexin V-FITC/propidium iodide staining based flow cytometric analysis (reference value: 2.09 %); assay type: functional
[21] = tested on: HepG2; experiment: Induction of apoptosis in human HepG2 cells assessed as reduction in viable cells up to 20 uM after 24 hrs by AO/EB double staining based flow cytometric analysis; assay type: functional, cell-based
[22] = tested on: HepG2; experiment: Induction of p53 expression in human HepG2 cells up to 20 uM after 24 hrs by immunofluoresence assay relative to control; assay type: functional, cell-based
[23] = tested on: Mus musculus; experiment: Toxicity in Kunming mouse xenografted with […] cells assessed as effect on lung weight index at 3 mg/kg, iv dosed every day starting from day 8 after tumor cell inoculation; assay type: organism-based; details: in vivo
[24] = tested on: SMMC-7721; experiment: Cytotoxicity against human SMMC7721 cells assessed as reduction in cell viability up to 20 uM after 24 to 72 hrs by MTT assay; assay type: functional, cell-based
[25] = tested on: HepG2; experiment: Effect on SSAT expression in human HepG2 cells at 5 to 20 uM after 24 hrs by Western blot analysis; assay type: functional, cell-based
[26] = tested on: SMMC-7721; experiment: Effect on SSAT expression in human SMMC7721 cells at 5 to 20 uM after 24 hrs by Western blot analysis; assay type: functional, cell-based
[27] = tested on: HepG2; experiment: Induction of ROS generation in human HepG2 cells at 20 uM after 24 hrs in presence of NAC by DCFH-DA-staining based HCS analysis; assay type: functional, cell-based
[28] = tested on: SMMC-7721; experiment: Antiproliferative activity against human SMMC7721 cells assessed as reduction in cell viability at 20 uM pre-treated with NAC after 48 hrs by MTT assay; assay type: functional, cell-based
[29] = tested on: HepG2; experiment: Induction of apoptosis in human HepG2 cells assessed as increase in apoptotic cells up to 20 uM after 24 hrs by AO/EB double staining based flow cytometric analysis; assay type: functional, cell-based
[30] = tested on: HepG2; experiment: Effect on putrescine levels in human HepG2 cells at 20 uM after 24 hrs by HPLC analysis; assay type: functional, cell-based
[31] = tested on: HepG2; experiment: Induction of apoptosis in human HepG2 cells assessed as viable cells at 20 uM after 24 hrs by Annexin V-FITC/propidium iodide staining based flow cytometric analysis (reference value: 86 %); assay type: functional; details: HepG2, 24 h, read-out: Activity
[32] = tested on: HepG2; experiment: Cytotoxicity against human HepG2 cells assessed as reduction in cell viability up to 20 uM after 24 to 72 hrs by MTT assay; assay type: functional, cell-based

## Cl.Cl.NCCCCNCCCCN1C(=O)c2cccc3c(-c4cc(=O)c5ccccc5o4)ccc(c23)C1=O
[1]
  Activity: Non-Toxic
[2]
  fold change (FC): 2.6
[3]
  Activity: inactive
[4]
  Activity: Active
[5]
  Drug uptake: Active
[6]
  Activity: inactive
[7]
  fold change (FC): 2.2
[8]
  Activity: inactive
[9]
  Activity: Active
[10]
  Drug uptake: Not Active
[11]
  Activity: Dose-dependent effect
[12]
  Drug uptake: Dose-dependent effect
[13]
  Activity: inactive
[14]
  Activity: Active
[15]
  Activity: Active
[16]
  Activity: inactive
[17]
  Activity: inactive
[18]
  Activity: inactive
[19]
  Activity: Non-Toxic
[20]
  Activity: 26.6%
[21]
  Activity: Dose-dependent effect
[22]
  Activity: Dose-dependent effect
[23]
  Activity: Non-Toxic
[24]
  Activity: Active
[25]
  Activity: inactive
[26]
  Activity: inactive
[27]
  Activity: inactive
[28]
  Activity: inactive
[29]
  Activity: Dose-dependent effect
[30]
  Activity: inactive
[31]
  viability at 20 µM: 37.8%
[32]
  Activity: Active
